Assay results taken from paper PMC9571063 (Molecules, 2022).
Read-outs that look alike come from different tables or passages of the source.

Assays:
FES = target: T1, FES (Homo sapiens, UniProt P07332); assay: KINOMEscan; assay type: binding; settings: read-out: Percent Control
T1 construct: purchased Eurofins DiscoverX KINOMEscan (scanMAX 468)

WNK2 = target: T2, WNK2 (Homo sapiens, UniProt Q9Y3S1); assay: KINOMEscan; assay type: binding; settings: read-out: Percent Control
T2 construct: purchased Eurofins DiscoverX KINOMEscan (scanMAX 468)

KIT(D816V) = target: T3, KIT(D816V) (Homo sapiens, UniProt P10721, D816V); assay: KINOMEscan; assay type: binding; settings: read-out: Percent Control
T3 construct: purchased Eurofins DiscoverX KINOMEscan (scanMAX 468)

MAP3K15 = target: T4, MAP3K15 (Homo sapiens, UniProt Q6ZN16); assay: KINOMEscan; assay type: binding; settings: read-out: Percent Control
T4 construct: purchased Eurofins DiscoverX KINOMEscan (scanMAX 468)

CDKL2 = target: T5, CDKL2 (Homo sapiens, UniProt Q92772); assay: KINOMEscan; assay type: binding; settings: read-out: Percent Control
T5 construct: purchased Eurofins DiscoverX KINOMEscan (scanMAX 468)

AMPK-alpha2 = target: T6, AMPK-alpha2 (Homo sapiens, UniProt P54646); assay: KINOMEscan; assay type: binding; settings: read-out: Percent Control
T6 construct: purchased Eurofins DiscoverX KINOMEscan (scanMAX 468)

PRKCE = target: T7, PRKCE (Homo sapiens, UniProt Q02156); assay: KINOMEscan; assay type: binding; settings: read-out: Percent Control
T7 construct: purchased Eurofins DiscoverX KINOMEscan (scanMAX 468)

CDKL3 = target: T8, CDKL3 (Homo sapiens, UniProt Q8IVW4); assay: KINOMEscan; assay type: binding; settings: read-out: Percent Control
T8 construct: purchased Eurofins DiscoverX KINOMEscan (scanMAX 468)

BRK = target: T9, BRK (Homo sapiens, UniProt Q13882); assay: KINOMEscan; assay type: binding; settings: read-out: Percent Control
T9 construct: purchased Eurofins DiscoverX KINOMEscan (scanMAX 468)

INSRR = target: T10, INSRR (Homo sapiens, UniProt P14616); assay: KINOMEscan; assay type: binding; settings: read-out: Percent Control
T10 construct: purchased Eurofins DiscoverX KINOMEscan (scanMAX 468)

CAMK1D = target: T11, CAMK1D (Homo sapiens, UniProt Q8IU85); assay: KINOMEscan; assay type: binding; settings: read-out: Percent Control
T11 construct: purchased Eurofins DiscoverX KINOMEscan (scanMAX 468)

MARK3 = target: T12, MARK3 (Homo sapiens, UniProt P27448); assay: KINOMEscan; assay type: binding; settings: read-out: Percent Control
T12 construct: purchased Eurofins DiscoverX KINOMEscan (scanMAX 468)
T12 sequence (P27448 whole entry): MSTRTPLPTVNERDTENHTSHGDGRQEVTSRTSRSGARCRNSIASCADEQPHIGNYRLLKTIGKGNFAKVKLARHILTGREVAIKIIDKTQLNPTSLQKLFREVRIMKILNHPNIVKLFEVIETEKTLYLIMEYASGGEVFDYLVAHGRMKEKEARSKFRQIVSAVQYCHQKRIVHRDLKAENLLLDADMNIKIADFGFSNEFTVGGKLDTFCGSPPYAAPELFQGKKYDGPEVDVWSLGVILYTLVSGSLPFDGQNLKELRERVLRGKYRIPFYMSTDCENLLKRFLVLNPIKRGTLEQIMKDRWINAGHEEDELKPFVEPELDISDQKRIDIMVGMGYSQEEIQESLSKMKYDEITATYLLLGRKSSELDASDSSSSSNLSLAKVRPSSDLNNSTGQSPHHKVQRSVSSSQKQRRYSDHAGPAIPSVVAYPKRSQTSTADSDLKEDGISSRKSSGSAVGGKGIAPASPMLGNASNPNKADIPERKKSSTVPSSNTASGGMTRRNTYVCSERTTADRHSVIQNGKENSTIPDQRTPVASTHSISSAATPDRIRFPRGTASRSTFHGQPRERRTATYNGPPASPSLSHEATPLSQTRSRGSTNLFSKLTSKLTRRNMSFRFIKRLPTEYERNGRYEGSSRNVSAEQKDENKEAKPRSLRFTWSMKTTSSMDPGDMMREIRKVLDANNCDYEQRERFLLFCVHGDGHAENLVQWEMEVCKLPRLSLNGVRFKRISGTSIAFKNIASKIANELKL

Hs_CDK9/CyclinT = target: T13, Hs_CDK9/CyclinT (Homo sapiens, UniProt P50750); parameters: method as in ref 13 (a number printed in a supplementary file, which may have a reference list of its own: not looked up in the article's list); settings: DB18, cited from earlier work
T13 construct: host or cells: Sf9 insect cells (baculovirus)
T13 sequence (P50750 whole entry): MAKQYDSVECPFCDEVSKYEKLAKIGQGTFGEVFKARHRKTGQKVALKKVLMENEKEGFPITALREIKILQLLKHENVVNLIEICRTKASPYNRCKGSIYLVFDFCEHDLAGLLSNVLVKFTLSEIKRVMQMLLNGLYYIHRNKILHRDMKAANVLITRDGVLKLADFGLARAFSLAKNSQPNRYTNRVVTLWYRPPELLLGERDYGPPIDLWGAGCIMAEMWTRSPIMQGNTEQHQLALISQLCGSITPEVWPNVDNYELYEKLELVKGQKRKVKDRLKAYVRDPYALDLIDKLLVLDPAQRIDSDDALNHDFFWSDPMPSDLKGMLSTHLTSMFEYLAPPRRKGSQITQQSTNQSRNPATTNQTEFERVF
T13 sequence (O60563 whole entry partner): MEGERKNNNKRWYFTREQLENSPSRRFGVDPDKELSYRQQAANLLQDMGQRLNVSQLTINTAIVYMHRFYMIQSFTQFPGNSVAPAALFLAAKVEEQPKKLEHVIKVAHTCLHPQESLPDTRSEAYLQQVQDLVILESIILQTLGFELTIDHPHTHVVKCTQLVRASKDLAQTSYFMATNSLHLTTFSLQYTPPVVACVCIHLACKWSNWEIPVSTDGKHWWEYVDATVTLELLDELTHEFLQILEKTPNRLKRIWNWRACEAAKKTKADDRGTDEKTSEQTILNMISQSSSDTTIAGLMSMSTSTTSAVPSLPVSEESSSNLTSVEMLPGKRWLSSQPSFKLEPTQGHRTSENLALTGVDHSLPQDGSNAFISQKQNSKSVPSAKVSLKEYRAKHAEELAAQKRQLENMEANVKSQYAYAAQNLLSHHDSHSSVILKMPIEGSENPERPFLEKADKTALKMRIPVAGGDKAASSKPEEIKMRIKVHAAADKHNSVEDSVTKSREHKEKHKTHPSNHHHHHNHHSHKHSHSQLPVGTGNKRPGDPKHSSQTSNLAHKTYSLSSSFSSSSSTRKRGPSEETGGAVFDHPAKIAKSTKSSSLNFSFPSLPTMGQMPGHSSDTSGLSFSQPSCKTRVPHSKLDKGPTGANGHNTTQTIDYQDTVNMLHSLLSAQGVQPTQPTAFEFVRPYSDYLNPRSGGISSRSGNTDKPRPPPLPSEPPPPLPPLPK

MAP3K3 = target: T14, MAP3K3 (Homo sapiens, UniProt Q99759); assay: KINOMEscan; assay type: binding; settings: read-out: Percent Control
T14 construct: purchased Eurofins DiscoverX KINOMEscan (scanMAX 468)

PFTAIRE2 = target: T15, PFTAIRE2 (Homo sapiens, UniProt Q96Q40); assay: KINOMEscan; assay type: binding; settings: read-out: Percent Control
T15 construct: purchased Eurofins DiscoverX KINOMEscan (scanMAX 468)

MmCLK1 = target: T16, MmCLK1 (Mus musculus, UniProt P22518); parameters: method as in ref 13 (a number printed in a supplementary file, which may have a reference list of its own: not looked up in the article's list); settings: DB18, cited from earlier work
T16 construct: host or cells: bacteria
T16 sequence (P22518 whole entry): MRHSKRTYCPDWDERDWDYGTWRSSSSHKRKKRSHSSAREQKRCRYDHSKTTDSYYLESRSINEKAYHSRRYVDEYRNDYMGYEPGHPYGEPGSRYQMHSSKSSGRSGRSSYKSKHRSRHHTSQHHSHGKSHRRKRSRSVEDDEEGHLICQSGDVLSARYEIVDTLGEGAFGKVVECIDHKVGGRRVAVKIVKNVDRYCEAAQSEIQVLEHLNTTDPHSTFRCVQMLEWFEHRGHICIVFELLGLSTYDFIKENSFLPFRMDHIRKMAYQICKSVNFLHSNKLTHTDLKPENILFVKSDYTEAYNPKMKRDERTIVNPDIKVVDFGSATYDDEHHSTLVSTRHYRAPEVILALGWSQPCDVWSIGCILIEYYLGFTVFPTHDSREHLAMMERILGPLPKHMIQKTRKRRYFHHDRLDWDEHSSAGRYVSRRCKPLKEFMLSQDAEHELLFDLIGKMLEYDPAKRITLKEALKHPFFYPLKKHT

MARK2 = target: T17, MARK2 (Homo sapiens, UniProt Q7KZI7); assay: KINOMEscan; assay type: binding; settings: read-out: Percent Control
T17 construct: purchased Eurofins DiscoverX KINOMEscan (scanMAX 468)
T17 sequence (Q7KZI7 whole entry): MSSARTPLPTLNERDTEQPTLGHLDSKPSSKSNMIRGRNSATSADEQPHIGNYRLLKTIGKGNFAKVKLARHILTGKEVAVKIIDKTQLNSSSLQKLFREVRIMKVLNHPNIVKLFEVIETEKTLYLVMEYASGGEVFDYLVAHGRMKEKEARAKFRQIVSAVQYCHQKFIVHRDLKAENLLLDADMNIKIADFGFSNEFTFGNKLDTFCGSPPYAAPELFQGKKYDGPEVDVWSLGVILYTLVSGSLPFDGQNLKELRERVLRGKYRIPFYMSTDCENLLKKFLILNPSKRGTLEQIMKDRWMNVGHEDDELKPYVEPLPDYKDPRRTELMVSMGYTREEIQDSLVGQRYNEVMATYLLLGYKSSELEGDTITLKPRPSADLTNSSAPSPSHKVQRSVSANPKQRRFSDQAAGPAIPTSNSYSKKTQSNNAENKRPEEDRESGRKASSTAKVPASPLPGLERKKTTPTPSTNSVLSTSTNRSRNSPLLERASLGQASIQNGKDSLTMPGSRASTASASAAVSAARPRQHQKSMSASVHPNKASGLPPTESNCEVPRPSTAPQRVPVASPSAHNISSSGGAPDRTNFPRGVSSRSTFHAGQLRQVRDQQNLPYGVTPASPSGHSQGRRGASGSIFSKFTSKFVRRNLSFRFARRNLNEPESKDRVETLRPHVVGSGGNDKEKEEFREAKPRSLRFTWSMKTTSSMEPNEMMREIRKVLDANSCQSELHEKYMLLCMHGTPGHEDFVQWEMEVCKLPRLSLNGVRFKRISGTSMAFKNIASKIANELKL

PKN2 = target: T18, PKN2 (Homo sapiens, UniProt Q16513); assay: KINOMEscan; assay type: binding; settings: read-out: Percent Control
T18 construct: purchased Eurofins DiscoverX KINOMEscan (scanMAX 468)

MKK7 = target: T19, MKK7 (Homo sapiens, UniProt O14733); assay: KINOMEscan; assay type: binding; settings: read-out: Percent Control
T19 construct: purchased Eurofins DiscoverX KINOMEscan (scanMAX 468)

MEK1 = target: T20, MEK1 (Homo sapiens, UniProt Q02750); assay: KINOMEscan; assay type: binding; settings: read-out: Percent Control
T20 construct: purchased Eurofins DiscoverX KINOMEscan (scanMAX 468)

SGK3 = target: T21, SGK3 (Homo sapiens, UniProt Q96BR1); assay: KINOMEscan; assay type: binding; settings: read-out: Percent Control
T21 construct: purchased Eurofins DiscoverX KINOMEscan (scanMAX 468)

MYO3B = target: T22, MYO3B (Homo sapiens, UniProt Q8WXR4); assay: KINOMEscan; assay type: binding; settings: read-out: Percent Control
T22 construct: purchased Eurofins DiscoverX KINOMEscan (scanMAX 468)

p38-alpha = target: T23, p38-alpha (Homo sapiens, UniProt Q16539); assay: KINOMEscan; assay type: binding; settings: read-out: Percent Control
T23 construct: purchased Eurofins DiscoverX KINOMEscan (scanMAX 468)

ERK1 = target: T24, ERK1 (Homo sapiens, UniProt P27361); assay: KINOMEscan; assay type: binding; settings: read-out: Percent Control
T24 construct: purchased Eurofins DiscoverX KINOMEscan (scanMAX 468)

PHKG2 = target: T25, PHKG2 (Homo sapiens, UniProt P15735); assay: KINOMEscan; assay type: binding; settings: read-out: Percent Control
T25 construct: purchased Eurofins DiscoverX KINOMEscan (scanMAX 468)

MEK2 = target: T26, MEK2 (Homo sapiens, UniProt P36507); assay: KINOMEscan; assay type: binding; settings: read-out: Percent Control
T26 construct: purchased Eurofins DiscoverX KINOMEscan (scanMAX 468)

AKT1 = target: T27, AKT1 (Homo sapiens, UniProt P31749); assay: KINOMEscan; assay type: binding; settings: read-out: Percent Control
T27 construct: purchased Eurofins DiscoverX KINOMEscan (scanMAX 468)

[1] = target: T28, RSK3(Kin.Dom.1-N-terminal) (Homo sapiens, UniProt Q15349); assay: KINOMEscan; assay type: binding; settings: read-out: Percent Control
T28 construct: RSK3(Kin.Dom.1-N-terminal); purchased Eurofins DiscoverX KINOMEscan (scanMAX 468)

[2] = target: T29, ABL1(H396P)-nonphosphorylated (Homo sapiens, UniProt P00519, H396P); assay: KINOMEscan; assay type: binding; settings: read-out: Percent Control
T29 construct: purchased Eurofins DiscoverX KINOMEscan (scanMAX 468)

GRK4 = target: T30, GRK4 (Homo sapiens, UniProt P32298); assay: KINOMEscan; assay type: binding; settings: read-out: Percent Control
T30 construct: purchased Eurofins DiscoverX KINOMEscan (scanMAX 468)

LATS2 = target: T31, LATS2 (Homo sapiens, UniProt Q9NRM7); assay: KINOMEscan; assay type: binding; settings: read-out: Percent Control
T31 construct: purchased Eurofins DiscoverX KINOMEscan (scanMAX 468)
T31 sequence (Q9NRM7 whole entry): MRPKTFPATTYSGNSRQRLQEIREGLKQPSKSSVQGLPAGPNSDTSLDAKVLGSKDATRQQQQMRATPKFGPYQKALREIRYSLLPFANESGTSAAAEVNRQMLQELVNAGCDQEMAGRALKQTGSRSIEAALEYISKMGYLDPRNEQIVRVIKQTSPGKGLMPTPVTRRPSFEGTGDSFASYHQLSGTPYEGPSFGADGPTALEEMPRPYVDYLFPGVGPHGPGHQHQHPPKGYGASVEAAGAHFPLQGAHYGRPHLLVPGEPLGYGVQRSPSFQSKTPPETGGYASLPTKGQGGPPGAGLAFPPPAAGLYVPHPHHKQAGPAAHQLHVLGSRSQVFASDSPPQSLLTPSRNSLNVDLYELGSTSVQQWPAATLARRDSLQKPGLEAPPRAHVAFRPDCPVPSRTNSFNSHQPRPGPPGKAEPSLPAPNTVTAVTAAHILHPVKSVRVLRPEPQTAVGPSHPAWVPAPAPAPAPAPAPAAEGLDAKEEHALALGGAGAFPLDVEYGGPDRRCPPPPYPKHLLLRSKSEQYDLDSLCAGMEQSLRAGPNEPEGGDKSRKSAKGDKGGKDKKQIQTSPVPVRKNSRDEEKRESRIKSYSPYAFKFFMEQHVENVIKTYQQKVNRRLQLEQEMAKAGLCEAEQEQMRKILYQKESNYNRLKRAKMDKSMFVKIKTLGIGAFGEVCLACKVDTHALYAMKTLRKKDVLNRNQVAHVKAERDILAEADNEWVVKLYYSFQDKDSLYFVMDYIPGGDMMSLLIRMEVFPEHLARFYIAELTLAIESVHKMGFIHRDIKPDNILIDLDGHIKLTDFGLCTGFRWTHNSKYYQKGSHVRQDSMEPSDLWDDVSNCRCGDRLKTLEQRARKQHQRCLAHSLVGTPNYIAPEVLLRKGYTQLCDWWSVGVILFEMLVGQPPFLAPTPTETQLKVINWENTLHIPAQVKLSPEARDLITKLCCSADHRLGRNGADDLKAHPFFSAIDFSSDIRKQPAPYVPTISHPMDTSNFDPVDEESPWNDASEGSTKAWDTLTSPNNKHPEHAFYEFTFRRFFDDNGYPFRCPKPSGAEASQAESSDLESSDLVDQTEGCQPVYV

CDK2 = target: T32, CDK2 (Homo sapiens, UniProt P24941); assay: KINOMEscan; assay type: binding; settings: read-out: Percent Control
T32 construct: purchased Eurofins DiscoverX KINOMEscan (scanMAX 468)

[3] = target: T33, ABL1(Q252H)-phosphorylated (Homo sapiens, UniProt P00519, Q252H); assay: KINOMEscan; assay type: binding; settings: read-out: Percent Control
T33 construct: purchased Eurofins DiscoverX KINOMEscan (scanMAX 468)

VEGFR2 = target: T34, VEGFR2 (Homo sapiens, UniProt P35968); assay: KINOMEscan; assay type: binding; settings: read-out: Percent Control
T34 construct: purchased Eurofins DiscoverX KINOMEscan (scanMAX 468)

ULK2 = target: T35, ULK2 (Homo sapiens, UniProt Q8IYT8); assay: KINOMEscan; assay type: binding; settings: read-out: Percent Control
T35 construct: purchased Eurofins DiscoverX KINOMEscan (scanMAX 468)

LIMK2 = target: T36, LIMK2 (Homo sapiens, UniProt P53671); assay: KINOMEscan; assay type: binding; settings: read-out: Percent Control
T36 construct: purchased Eurofins DiscoverX KINOMEscan (scanMAX 468)

PIP5K2C = target: T37, PIP5K2C (Homo sapiens, UniProt Q8TBX8); assay: KINOMEscan; assay type: binding; settings: read-out: Percent Control
T37 construct: purchased Eurofins DiscoverX KINOMEscan (scanMAX 468)

Human skin fibroblasts = test system: Human skin fibroblasts; parameters: method as in ref 14 (a number printed in a supplementary file, which may have a reference list of its own: not looked up in the article's list); settings: DB18[a], footnote not given; read-out: Cytotoxic studies IC50 Fibroblasts; cited from earlier work
IKK-alpha = target: T38, IKK-alpha (Homo sapiens, UniProt O15111); assay: KINOMEscan; assay type: binding; settings: read-out: Percent Control
T38 construct: purchased Eurofins DiscoverX KINOMEscan (scanMAX 468)

CAMK2G = target: T39, CAMK2G (Homo sapiens, UniProt Q13555); assay: KINOMEscan; assay type: binding; settings: read-out: Percent Control
T39 construct: purchased Eurofins DiscoverX KINOMEscan (scanMAX 468)
T39 sequence (Q13555 whole entry): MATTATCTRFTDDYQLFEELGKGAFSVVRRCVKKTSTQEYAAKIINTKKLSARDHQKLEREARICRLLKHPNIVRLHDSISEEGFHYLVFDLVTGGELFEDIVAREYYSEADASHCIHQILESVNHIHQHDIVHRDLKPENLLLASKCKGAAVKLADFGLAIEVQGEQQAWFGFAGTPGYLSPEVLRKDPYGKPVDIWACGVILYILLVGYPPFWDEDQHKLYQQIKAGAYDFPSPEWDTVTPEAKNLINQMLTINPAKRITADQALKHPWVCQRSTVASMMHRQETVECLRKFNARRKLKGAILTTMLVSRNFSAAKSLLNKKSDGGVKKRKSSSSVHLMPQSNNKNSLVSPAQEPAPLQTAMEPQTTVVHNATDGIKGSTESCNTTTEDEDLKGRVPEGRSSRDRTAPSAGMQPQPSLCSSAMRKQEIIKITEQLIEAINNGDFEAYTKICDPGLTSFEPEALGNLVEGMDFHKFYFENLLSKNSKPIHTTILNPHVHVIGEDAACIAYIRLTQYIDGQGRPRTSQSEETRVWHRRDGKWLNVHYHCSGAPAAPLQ

Cc1ccc(-n2cc(COc3cccc4cnc(Nc5cccc(Cl)c5)nc34)nn2)c([N+](=O)[O-])c1 [DB18]
remaining binding at 1 µM (FES): 100%
remaining binding at 1 µM (WNK2): 67%
remaining binding at 1 µM (KIT(D816V)): 100%
remaining binding at 1 µM (MAP3K15): 93%
remaining binding at 1 µM (CDKL2): 97%
remaining binding at 1 µM (AMPK-alpha2): 91%
remaining binding at 1 µM (PRKCE): 100%
remaining binding at 1 µM (CDKL3): 94%
remaining binding at 1 µM (BRK): 100%
remaining binding at 1 µM (INSRR): 100%
remaining binding at 1 µM (CAMK1D): 100%
remaining binding at 1 µM (MARK3): 100%
% of residual activity Hs_CDK9/CyclinT (Hs_CDK9/CyclinT; 1 µM): 90%
% of residual activity Hs_CDK9/CyclinT (Hs_CDK9/CyclinT; 10 µM): 54%
remaining binding at 1 µM (MAP3K3): 99%
remaining binding at 1 µM (PFTAIRE2): 95%
% of residual activity Mm_CLK1 (MmCLK1; 1 µM): 21%
% of residual activity Mm_CLK1 (MmCLK1; 10 µM): 11%
remaining binding at 1 µM (MARK2): 94%
remaining binding at 1 µM (PKN2): 100%
remaining binding at 1 µM (MKK7): 100%
remaining binding at 1 µM (MEK1): 97%
remaining binding at 1 µM (SGK3): 100%
remaining binding at 1 µM (MYO3B): 84%
remaining binding at 1 µM (p38-alpha): 100%
remaining binding at 1 µM (ERK1): 100%
remaining binding at 1 µM (PHKG2): 95%
remaining binding at 1 µM (MEK2): 89%
remaining binding at 1 µM (AKT1): 87%
remaining binding at 1 µM [1]: 100%
remaining binding at 1 µM [2]: 96%
remaining binding at 1 µM (GRK4): 100%
remaining binding at 1 µM (LATS2): 100%
remaining binding at 1 µM (CDK2): 100%
remaining binding at 1 µM [3]: 100%
remaining binding at 1 µM (VEGFR2): 99%
remaining binding at 1 µM (ULK2): 100%
remaining binding at 1 µM (LIMK2): 100%
remaining binding at 1 µM (PIP5K2C): 28%
IC50 (Human skin fibroblasts): 21 µM
remaining binding at 1 µM (IKK-alpha): 100%
remaining binding at 1 µM (CAMK2G): 100%
